The values that follow come from article PMC5086919, “Antileukemic Scalarane Sesterterpenoids and Meroditerpenoid from Carteriospongia (Phyllospongia) sp., Induce Apoptosis via Dual Inhibitory Effects on Topoisomerase II and Hsp90” (Scientific Reports, 2016).

SMILES strings stand for the structures. In brackets after ≈: the same amount, converted by molar mass. Several values for one entry are separate records, joined by “and”; a condition that tells them apart may be missing. Identical values can stand only once.

In one experiment the test system is LNCaP cells. Description: MTT antiproliferative assay, prostate cancer LNCaP cells. Particulars: Homo sapiens, 72 h, read-out: IC50, cytotoxicity, Prostate LNCaP. On the technique in general: Tetrazolium dyes change colour on reduction, which living cells bring about.
In another experiment the test system is U937 cells. Description: MTT antiproliferative assay, lymphoma U937 cells. Particulars: Homo sapiens, U-937, 72 h, read-out: IC50, cytotoxicity, Lymphoma U937.
In another experiment the test system is Hsp70 in Molt 4 cells. Description: Immunofluorescence localization of Hsp70, confocal microscope. Format: cell-based, human. The method, then: It was also reported that the induction of Hsp70 is the biomarker of Hsp90 with N-terminal inhibition. Aiming to understand the relation between Hsp90 function and the expression of Hsp70 and 90 clients, we treated Molt 4 cells with 1 (0.0625 μg/mL) for different time intervals. […] The majority of Hsps accumulate in subcellular localizations that determine whether a cell is going to die or differentiate. Erythroblasts with accumulated nuclear Hsp70 continued their differentiation process during the formation of red blood cells. Furthermore, we identified the localization of Hsp70 in response to 1 treatment using immunofluorescence by confocal microscope.
After treatment with the tested compound, cells were fixed with 4% paraformaldehyde in 50 mM HEPES buffer (pH 7.3) for 30 min, and permeabilized for 20 min with 0.2% Trition X-100 in PBS (pH 7.4). To prevent non-specific protein binding, cells were incubated with 5% BSA in PBS containing 0.05% Trition X-100 (T-PBS) for 1 h at room temperature. Cells were then incubated with the primary Hsp70 antibodies (1: 500) for 2 h and further with secondary antibodies (Alexa Fluor […] goat anti-mouse IgG (H + L) (Life Technologies, Carlsbad, CA, USA) diluted at 1:1000 for 1 h at room temperature. After washing with PBS, cells were observed under a FV1000 confocal laser scanning microscope (Olympus, Tokyo, Japan).

Another experiment concerns the target T1, human topoisomerase II (Homo sapiens, UniProt P11388).
T1 construct: purchased Topogen
Description: Cell-free topoisomerase II DNA relaxation/cleavage assay with supercoiled pHOT1 plasmid DNA. Format: biochemical. Particulars: compared with control supercoiled DNA. An excerpt: The ability of Topo II to generate DNA damage in the presence of Topo II-targeting agents led to the hypothesis that an important determinant of drug sensitivity was related to the overall level of Topo II[17]. […] Such findings encouraged us to evaluate the effect of the isolates on Topo II activity. In order to confirm whether the DNA damage-induced by the isolated sesterterpenoids involved the inhibition of Topo II activity, a cell-free DNA cleavage assay using an enzyme-mediated negatively supercoiled pHOT1 plasmid DNA was applied. […] These marine terpenoids suppressed Topo II activity, resulting in the inhibition of supercoiled DNA relaxation in a dose-dependent manner (Fig. 5A). […] To determine whether the apoptotic mechanism of these compounds affects γH2AX (as a biomarker of DNA damage) induction, Western blot analysis was employed to examine the activation of γH2AX.
The assay was performed as described previously. […] Reactions were terminated by adding 2 μL of 10% SDS to facilitate trapping the enzyme in a cleavage complex, followed by the addition of 2.5 μL of proteinase K (50 μg/mL) to digest the bound protein (incubated at 37 °C for 15 min) and finally by adding 0.1 volume of the sample loading dye. The DNA products were analyzed via electrophoresis through vertical 2% agarose gels at 2 voltage/cm in 0.5 × TAE buffer. Gels were stained with ethidium bromide and photographed using an Eagle Eye II system (Stratagene, La Jolla, CA, USA). The quantitative analysis of the DNA Topo II activity was performed as described previously.

The subject of experiment [1] is all leukemia and one lymphoma cell lines. Description: MTT assay, summary statement for leukemia and lymphoma lines. Particulars: read-out: IC50 against all leukemia and one lymphoma cell lines.
Description: (§3) Several cancer cell lines including leukemia K562, Molt 4, and HL 60 cells, prostate cancer LNCaP cells, colon cancer DLD-1 cells and breast cancer T-47D cells were used to evaluate the antiproliferative activity.
(§4) The cell lines were obtained from the American Type Culture Collection (ATCC, Manassas, VA, USA). […] Dimethyl sulfoxide (DMSO), 3-(4,5-dimethylthiazol-2-yl)-2,5-diphenyl-tetrazolium bromide (MTT) and all other chemicals were purchased from Sigma-Aldrich (St. Louis, MO, USA).
The subject of the next experiment is HL 60 cells. Description: MTT antiproliferative assay, leukemia HL 60 cells. Particulars: Homo sapiens, HL-60, 72 h, read-out: IC50, cytotoxicity, Leukemia HL 60.
The next experiment has as its system DLD-1 cells. Description: MTT antiproliferative assay, colon cancer DLD-1 cells. Particulars: Homo sapiens, DLD-1, 72 h, read-out: IC50, cytotoxicity, Colon DLD-1.
The test system of another experiment is K562 cells. Description: MTT antiproliferative assay, leukemia K562 cells. Particulars: Homo sapiens, K562, 72 h, read-out: IC50, cytotoxicity, Leukemia K562.
The subject of experiment [2] is PARP and caspases in Molt 4 cells. Description: Western blot of apoptosis-related proteins. Format: cell-based, human. Particulars: 0.0625 μg/mL, time-dependent. The method, then: (§1) Oxidative stress is manifested by ROS overexpression and cannot be balanced by the available antioxidant machinery. Compound 1 can damage the integrity of mitochondria, which are the major production sites of the superoxide anion, […]. The induction of the intracellular formation of ROS by 1 was determined with a carboxyl derivative of fluorescein, carboxy-H2DCFDA dye using flow cytometric analysis. […] In addition, ROS generation could induce ER stress leading to mitochondria-related apoptosis. To further investigate if ER stress is involved in the apoptotic effect induced by 1, Western blot analysis was used to determine the expression of ER stress-related proteins. […] Furthermore, the effect of 1 on the release of intracellular Ca^2+, was evaluated using fluorescent calcium indicator, Fluo 3. […] The effect of 1 (0.0625 μg/mL) at different time intervals (0, 3, 6 and 9 h) on the level of nuclear DNA integrity was determined. […]
(§2) Cell lysates were prepared by treating the cells for 30 min in RIPA lysis buffer, 1% Nonidet P-40, 0.5% sodium deoxycholate, 0.1% sodium dodecyl sulphate (SDS), 1 mM sodium orthovanadate, 100 μg/mL phenylmethylsulfonyl fluoride and 30 μg/mL aprotinin) (all chemicals were from Sigma)[38]. The lysates were centrifuged at 20,000 × g for 30 min, and the protein concentration in the supernatant was determined using a BCA protein assay kit (Pierce). […]
For orientation: In western blotting, separated proteins are transferred to a membrane and probed.

Experiment [3] relates to ER stress-related proteins in Molt 4 cells. Description: Western blot of ER stress-related proteins. In kind it is cell-based, human. Particulars: 0.0625 μg/mL, time-dependent. The method, then:
as §1, §2

T1 sequence (P11388 whole entry): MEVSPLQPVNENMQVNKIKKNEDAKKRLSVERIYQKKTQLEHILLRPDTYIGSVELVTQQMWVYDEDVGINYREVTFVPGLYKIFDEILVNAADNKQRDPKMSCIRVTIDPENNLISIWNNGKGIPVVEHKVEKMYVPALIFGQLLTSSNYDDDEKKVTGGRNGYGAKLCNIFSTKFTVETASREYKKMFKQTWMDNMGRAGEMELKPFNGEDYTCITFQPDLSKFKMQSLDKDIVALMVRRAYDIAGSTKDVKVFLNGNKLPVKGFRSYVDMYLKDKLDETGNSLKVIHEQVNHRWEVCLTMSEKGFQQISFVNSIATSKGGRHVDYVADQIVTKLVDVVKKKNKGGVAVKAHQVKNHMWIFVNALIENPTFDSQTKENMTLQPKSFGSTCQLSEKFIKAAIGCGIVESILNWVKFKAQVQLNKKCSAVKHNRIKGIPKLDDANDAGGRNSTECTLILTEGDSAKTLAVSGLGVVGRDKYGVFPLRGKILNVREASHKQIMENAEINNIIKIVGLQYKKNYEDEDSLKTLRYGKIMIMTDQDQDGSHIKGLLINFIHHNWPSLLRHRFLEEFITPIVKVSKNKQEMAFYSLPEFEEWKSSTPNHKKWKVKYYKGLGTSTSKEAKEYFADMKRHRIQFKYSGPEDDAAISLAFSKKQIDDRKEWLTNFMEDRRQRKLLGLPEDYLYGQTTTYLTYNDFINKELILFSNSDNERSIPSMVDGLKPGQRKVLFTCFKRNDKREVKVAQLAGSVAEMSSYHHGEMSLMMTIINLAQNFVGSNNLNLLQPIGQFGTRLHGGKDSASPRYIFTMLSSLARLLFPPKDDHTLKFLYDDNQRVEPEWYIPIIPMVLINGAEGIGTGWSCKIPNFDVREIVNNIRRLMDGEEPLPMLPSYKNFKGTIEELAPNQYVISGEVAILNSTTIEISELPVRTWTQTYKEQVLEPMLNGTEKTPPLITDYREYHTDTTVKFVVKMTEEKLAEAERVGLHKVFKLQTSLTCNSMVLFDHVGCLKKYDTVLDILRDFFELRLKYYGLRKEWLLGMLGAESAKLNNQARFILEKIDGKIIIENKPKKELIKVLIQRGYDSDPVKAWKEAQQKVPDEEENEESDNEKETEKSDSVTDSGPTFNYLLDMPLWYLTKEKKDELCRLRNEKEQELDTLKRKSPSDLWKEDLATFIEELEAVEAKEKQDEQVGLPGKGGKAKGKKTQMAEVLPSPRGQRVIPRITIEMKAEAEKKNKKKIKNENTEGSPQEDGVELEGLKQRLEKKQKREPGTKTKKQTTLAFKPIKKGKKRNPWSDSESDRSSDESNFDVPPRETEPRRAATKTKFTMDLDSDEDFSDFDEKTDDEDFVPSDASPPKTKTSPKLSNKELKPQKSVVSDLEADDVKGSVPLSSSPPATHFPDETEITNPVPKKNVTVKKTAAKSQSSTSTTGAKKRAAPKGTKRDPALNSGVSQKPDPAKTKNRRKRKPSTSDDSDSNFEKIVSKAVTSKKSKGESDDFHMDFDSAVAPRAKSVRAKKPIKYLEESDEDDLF
Description for DLD-1 cells: as §3, §4
Description for HL 60 cells: as §3, §4
Description for K562 cells: as §3, §4
Description for LNCaP cells: as §3, §4

The IC50 is the concentration that gives 50% inhibition. As a reminder, the inhibition is the share of the control response that was lost under treatment. A higher inhibition goes with strong suppression. In the case of `CC[C@@]1(C)CCC[C@]2(C)[C@H]3C[C@@H](OC(=O)C[C@@H](C)O)[C@]4(C)[C@@H](C=O)C(C(C)=O)=CC[C@H]4[C@]3(C)CC[C@@H]12` (relative stereo) [Compound 1, 12β-(3′β-hydroxybutanoyloxy)-20,24-dimethyl-24-oxo-scalara-16-en-25-al], the half-inhibitory concentration (IC50) in the experiment on LNCaP cells was 13.9 µg/mL (≈ 27.7 µM); with U937 cells it was 0.01 µg/mL (≈ 0.02 µM); in experiment [1], 0.01 µg/mL and 2.08 nM; with HL 60 cells, 0.01 µg/mL (≈ 0.02 µM); in the experiment on DLD-1 cells it was 2.33 µg/mL (≈ 4.65 µM); in the experiment with K562 cells it was 0.01 µg/mL (≈ 0.02 µM). Also, the “localization of Hsp70” value with Hsp70 in Molt 4 cells is listed as “predominantly accumulated in cytosol”. Further, the inhibition at 0.08 µg/mL against human topoisomerase II (0.08 μg/mL) was 12%. In addition, at human topoisomerase II (0.312 μg/mL), at 0.312 µg/mL the inhibition was 13%. At human topoisomerase II (1.25 μg/mL), 1.25 µg/mL produced 17% inhibition. On human topoisomerase II (5 μg/mL), this compound returned an inhibition at 5 µg/mL of 20%. This compound also yielded an inhibition at 20 µg/mL at human topoisomerase II (20 μg/mL) of 99%. Also, the “PARP and caspase cleavages” value in experiment [2] is “significant increase of PARP, caspases-8 and −9 cleavages”. The “levels of ER stress-related proteins” value in [3] is “promoted the levels of Bip, Chop, Grp 94 as well as the activation and cleavage of ATF 6 but suppressed the levels of PERK and IRE 1”.
